According to patent US8147880B2, “Polyacetylenic compounds for stimulating insulin gene exression, production and secretion” (Academia Sinica, priority 2007, dated 2012):

How the values were obtained:
RIN-m5F cells [1] = experiment: Cytopiloyne-induced insulin secretion after pre-treatment with channel modulators / calcium chelator; assay type: cell-based, rat; conditions: then cytopiloyne 5 μg/ml for 10 min
Procedure: RIN-[…] cells were pre-treated with vehicle, diazoxide (100 μM), EGTA (10 μM), or nimodipine (1 μM) for 30 minutes. They were then incubated with cytopiloyne at 5 μg/ml for 10 min. Insulin levels in the cell medium were determined using an insulin Elisa kit.

db/db mice [2] = experiment: Intraperitoneal glucose tolerance test in diabetic db/db mice after oral administration; assay type: in vivo; conditions: db/db mice fasted 12 hours, glucose 0.5 g/kg i.p. half an hour later, vs PBS
Procedure: The db/db mice were purchased from Jackson Laboratory, and then maintained and handled according to the guidelines of Academia Sinica Institutional Animal Care and Utilization Committee (Taiwan). Glibenclamide was purchased from MP Biomedical Inc.
Diabetic db/db mice aged 7-8 weeks were fasted for 12 hours (water allowed) and orally administered with PBS, cytopiloyne at 0.5 mg/kg or Glimepiride at 2.5 mg/kg. Half an hour later, the mice were intraperitoneally injected with glucose at 0.5 g/kg body weight. Blood glucose levels were monitored at 0, 0.5, 1, 1.5, 2 and 3 hours using Elite glucometer.

RIN-m5F cells [3] = experiment: Insulin levels (intracellular anti-insulin staining, Elisa) in RIN-m5F cells; assay type: cell-based, rat; conditions: 2.5, 5, or 10 μg/ml for 24 hours, vs vehicle
Procedure: (§1) Primary β cells from mice were seeded in 9-cm^2 plates in a glucose-free RPMI 1640 medium. Both mouse primary β cells and RIN-m5F cells were treated with vehicle or cytopiloyne at 2.5, 5, or 10 μg/ml for 24 hours. The treated cells were subsequently subjected to intracellular staining with anti-insulin antibody (H86, Santa Cruz Biotechnology, CA, USA) and FITC-conjugated anti-rabbit antiserum (BD Biosciences, CA, USA) according to the manufacturer's instruction. The insulin levels in the cell media were determined using an insulin Elisa kit.

RIN-m5F cells [4] = experiment: Insulin secretion into cell medium (insulin Elisa kit); assay type: cell-based, rat; conditions: 2.5, 10, and 15 μg/mL for 24 hours
Procedure: RIN-m5F cells, a rat β cell line, were obtained from the American Type Culture Collection (ATCC). Glucose-free RPMI medium was purchased from Life Technology. The cells were grown in a glucose-free RPMI 1640 medium supplemented with 10% FCS, penicillin (100 U/ml), streptomycin (100 μg/ml), 2-mercapoethanol (50 μM), sodium pyruvate (1 mM), and glutamate (292 μg/ml).
The cells were separately incubated with vehicle, glucose at a high dose (16.7 mM), glucose at a low dose (3.6 mM), and cytopiloyne at 2.5, 10, and 15 μg/mL for 24 hours. Insulin levels in the cell medium were determined using an insulin Elisa kit (Mercodia, Uppsala, Sweden).

db/db mice [5] = experiment: Blood glucose levels in fasted diabetic db/db mice after intraperitoneal injection; assay type: in vivo; conditions: db/db mice 7-8 weeks old, fasted 12 hours; 25 μg/kg intraperitoneally; at two hours; vs PBS
Procedure: The db/db mice were purchased from Jackson Laboratory (Bar Harbor, Me., U.S.A.), and then maintained and handled according to the guidelines of Academia Sinica Institutional Animal Care and Utilization Committee (Taiwan).
Diabetic db/db mice of 7-8 weeks old were fasted for 12 hours (water allowed), and then intraperitoneally injected with phosphate-buffered saline (PBS) or cytopiloyne at 25 μg/kg, blood glucose levels in the mice were monitored at 0, 1, 2, 4, and 6 hours using Elite glucometer.

[6] = system: Primary β cells from mice; experiment: Insulin levels (intracellular anti-insulin staining, Elisa) in primary β cells; assay type: cell-based; conditions: mouse primary β cells; 2.5, 5, or 10 μg/ml for 24 hours; vs vehicle
Procedure: as §1

human insulin promoter = experiment: Insulin promoter luciferase reporter (pINS-Luc / pRL-TK) in transfected RIN-m5F cells; assay type: cell-based; conditions: 2.5, 10, or 15 μg/ml for 24 hours
Procedure: The pINS-DCR3 vector containing a human insulin promoter was digested by SphI and BamHI and then cloned into a pcDNAΔCMVlue vector to generate the plasmid pINS-Luc. The plasmid pRL-TK containing a thymidine kinase promoter and a Renilla luciferase reporter gene was purchased from Promega.
RIN-m5F cells transfected with pINS-Luc and pRL-TK plasmids were incubated with vehicle, high glucose (16.7 mM), or cytopiloyne at 2.5, 10, or 15 μg/ml for 24 hours.

`O=C(O)CN(CCOCCOCCN(CC(=O)O)CC(=O)O)CC(=O)O` [EGTA] was tested, and the “effect on cytopiloyne-mediated insulin secretion” value (RIN-m5F cells [1]; pre-treatment 10 μM for 30 minutes) was “suppressed cytopiloyne-mediated insulin secretion”.
In the case of `CCC1=C(C)CN(C(=O)NCCc2ccc(S(=O)(=O)NC(=O)N[C@H]3CC[C@H](C)CC3)cc2)C1=O` [Glimepiride, reference compound], the glucose tolerance (db/db mice [2]; 2.5 mg/kg orally) is reported as “improved glucose tolerance”.
In the case of `CC#CC#CC#CC#CCCC(CO)OC1OC(CO)C(O)C(O)C1O` (stereo not drawn) [cytopiloyne], the insulin levels (RIN-m5F cells [3]) is reported as “elevated insulin levels”, the insulin secretion (RIN-m5F cells [4]) is reported as “significantly enhanced insulin secretion” and the glucose tolerance (db/db mice [2]; 0.5 mg/kg orally) is reported as “improved glucose tolerance as effectively as Glimepiride”. The blood glucose levels (db/db mice [5]) was “significantly decreased”, the insulin levels [6] was “elevated insulin levels” and the insulin transcription (human insulin promoter) was “stimulated insulin transcription in RIN-m5F cells in a dose-dependent manner”.
With `CC1=NS(=O)(=O)c2cc(Cl)ccc2N1` [diazoxide] the “effect on cytopiloyne-induced insulin secretion” value (RIN-m5F cells [1]; pre-treatment 100 μM for 30 minutes) was “suppressed cytopiloyne-induced insulin secretion”.
